The values below come from US6495592B1, “Tracheal smooth muscle relaxants” (Nippon Suisan Kaisha, Ltd., priority 1996, dated 2002).

A value given as a limit tells only on which side of the number the result lay.

In one data set the test system is tracheal smooth muscle. The experiment in a line: Dilating action to contraction of tracheal smooth muscle (potassium chloride-induced contraction of isolated trachea segment, Magnus tube). The data set is classed as cell-based. Conditions: Cavia porcellus; 30 μM test substance; contraction induced by 72.7 mM potassium chloride; guinea pig (Hartley, male) trachea segment; read-out: Activity (suppressing rate for contraction by potassium chloride). The procedure: Each sample is tested by using two segment obtained from one animal; the trachea was removed from a guinea pig (Hartley, male, seven weeks age) and was made the segment, 6 mm in length. The segment was suspended in a Magnus tube containing a physiological salt solution of 37° C. with a flow of mixed gas consisting of 95% oxygen and 5% carbon dioxide gas. A base-line tension of 1 g was applied to the segment and, after tension of the sample became stable, the solution was exchanged with a solution containing 72.7 mM of potassium chloride to induce a contraction. When tension of the contraction by potassium chloride became stable, a compound of the formula (1) was added as a test substance to measure the change in the tension. The test substance was dissolved in dimethyl sulfoxide and added thereto. Incidentally, at the stage of addition, the final concentration of dimethyl sulfoxide was made not more than 0.3%. Changes in the tension was recorded on a recorder (R-64V, Rika Denki) after introducing to an amplifier for strain pressure (AP-621G, Nippon Koden Kogyo) via an FD pickup transducer (TB-611T, Nippon Koden Kogyo). Tension before addition of potassium chloride was set as 0 while that after addition of potassium chloride was set as 100 and the suppressing rate for contraction by potassium chloride after addition of the test substance was expressed by a relative percentage whereby the activity was determined according to the following criteria.
The Compound No. in the table is the same as that in the Production Examples.
On to `O=C1Cc2ccccc2Sc2cc(O)cc(O)c21` [Compound 80, 7,9-dihydroxy-10,11-dihydrodibenzo[b,f]thiepin-10-one], for which the inhibition at 30 µM is no less than 50%. Same read-out and setting: then `O=C1Cc2ccccc2Oc2cc(O)cc(O)c21` [Compound 11, 7,9-dihydroxy-10,11-dihydrodibenz[b,f]oxepin-10-one], with no less than 50%. The same measure, in the same setting: under `O=C1Cc2cc(Br)ccc2Oc2cc(O)cc(O)c21` [Compound 110, 2-bromo-7,9-dihydroxy-10,11-dihydrodibenzo[b,f]oxepin-10-one] stands no less than 50%; under `Oc1cc(O)c2c(c1)Oc1ccc(C(F)(F)F)cc1CC2` [Compound 39, 8-trifluoromethyl-10,11-dihydrodibenz[b,f]oxepin-1,3-diol], no less than 50%.

For the compound `O=C1Cc2ccccc2Oc2cc(O)c(O)c(O)c21` [Compound 9, 7,8,9-trihydroxy-10,11-dihydrodibenz[b,f]oxepin-10-one], the inhibition at 30 µM is no more than 50%. With `O=C1Cc2cc([N+](=O)[O-])ccc2Oc2cc(O)cc(O)c21` [Compound 70, 2-nitro-7,9-dihydroxy-10,11-dihydrodibenz[b,f]oxepin-10-one], the inhibition at 30 µM was no less than 50%. Regarding `O=C1Cc2cc(C#CCCO)ccc2Oc2cc(O)cc(O)c21` [Compound 115, 2-(4-hydroxy-1-butynyl)-7,9-dihydroxy-10,11-dihydrodibenzo[b,f]oxepin-10-one], the inhibition at 30 µM is no less than 50%. Still for that read-out and setting: under `O=C1Cc2cc(C#CCCCO)ccc2Oc2cc(O)cc(O)c21` [Compound 116, 2-(5-hydroxy-1-pentynyl)-7,9-dihydroxy-10,11-dihydrodibenzo[b,f]oxepin-10-one] stands no less than 50%. The same measure, in the same setting: then `O=C1Cc2cc(Cl)cc(Cl)c2Oc2cc(O)cc(O)c21` [Compound 34, 2,4-dichloro-7,9-dihydroxy-10,11-dihydrodibenz[b,f]oxepin-10-one], with no less than 50%.

In the next data set the test system is rats.
Test: not given
Conditions: male, rat, in vivo. The procedure:
Toxicity test was conducted only for the Compounds 11, 43 and 80 by means of a single oral administration to rats.
Animals used: three males
As to `O=C1Cc2ccccc2Sc2cc(O)cc(O)c21` [Compound 80, 7,9-dihydroxy-10,11-dihydrodibenzo[b,f]thiepin-10-one], the minimum lethal dose entry was “not less than 2,000 mg/kg”.

Consider `O=C1Cc2ccccc2Sc2cc(O)c(O)cc21` [Compound 43, 7,8-dihydroxy-10,11-dihydrodibenzo[b,f]thiepin-10-one], for which the minimum lethal dose result was “not less than 2,000 mg/kg”. Same read-out and setting: then `O=C1Cc2ccccc2Oc2cc(O)cc(O)c21` [Compound 11, 7,9-dihydroxy-10,11-dihydrodibenz[b,f]oxepin-10-one], with “not less than 2,000 mg/kg”.
